Test results reported in paper PMC7443477 (British Journal of Pharmacology, 2020).

What was measured:
Type in all cases: cell-based
[1] = target: LPA1 receptor (native, systemic sclerosis dermal fibroblasts) (Homo sapiens, UniProt Q92633); assay: FLIPR calcium flux, primary SSc dermal fibroblasts; conditions: agonist; 0.3% fatty acid-free human serum albumin; Gi/Go coupled
LPA2 receptor = LPA2 receptor (Homo sapiens, UniProt Q9HBW0); assay: FLIPR calcium flux, CHO cells
LPA5 receptor = LPA5 receptor (Homo sapiens, UniProt Q9H1C0); assay: FLIPR calcium flux, CHO cells
Chain of LPA5 receptor (Q9H1C0 whole entry): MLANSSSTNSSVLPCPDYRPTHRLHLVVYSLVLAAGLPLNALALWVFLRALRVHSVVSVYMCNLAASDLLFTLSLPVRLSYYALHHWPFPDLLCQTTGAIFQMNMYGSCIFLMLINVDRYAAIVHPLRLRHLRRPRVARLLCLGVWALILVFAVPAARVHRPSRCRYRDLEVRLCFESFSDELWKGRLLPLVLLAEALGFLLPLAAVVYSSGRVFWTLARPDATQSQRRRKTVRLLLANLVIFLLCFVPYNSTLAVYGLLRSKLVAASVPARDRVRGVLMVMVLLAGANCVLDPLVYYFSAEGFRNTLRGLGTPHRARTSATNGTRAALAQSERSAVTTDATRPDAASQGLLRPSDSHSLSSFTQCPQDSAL

LPA3 receptor = target: T1, LPA3 receptor (Homo sapiens, UniProt Q9UBY5); assay: FLIPR calcium flux, CHO cells
T1 sequence (Q9UBY5 1-353): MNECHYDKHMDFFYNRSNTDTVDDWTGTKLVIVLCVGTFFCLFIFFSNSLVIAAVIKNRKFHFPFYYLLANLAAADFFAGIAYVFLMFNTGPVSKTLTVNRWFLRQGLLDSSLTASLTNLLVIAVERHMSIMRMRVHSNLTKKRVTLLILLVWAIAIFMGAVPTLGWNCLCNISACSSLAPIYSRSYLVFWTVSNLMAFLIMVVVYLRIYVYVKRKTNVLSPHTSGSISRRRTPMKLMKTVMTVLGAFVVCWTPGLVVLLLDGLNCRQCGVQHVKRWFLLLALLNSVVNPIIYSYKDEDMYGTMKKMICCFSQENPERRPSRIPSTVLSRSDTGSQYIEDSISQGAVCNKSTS

Chain of LPA2 receptor (Q9HBW0 whole entry): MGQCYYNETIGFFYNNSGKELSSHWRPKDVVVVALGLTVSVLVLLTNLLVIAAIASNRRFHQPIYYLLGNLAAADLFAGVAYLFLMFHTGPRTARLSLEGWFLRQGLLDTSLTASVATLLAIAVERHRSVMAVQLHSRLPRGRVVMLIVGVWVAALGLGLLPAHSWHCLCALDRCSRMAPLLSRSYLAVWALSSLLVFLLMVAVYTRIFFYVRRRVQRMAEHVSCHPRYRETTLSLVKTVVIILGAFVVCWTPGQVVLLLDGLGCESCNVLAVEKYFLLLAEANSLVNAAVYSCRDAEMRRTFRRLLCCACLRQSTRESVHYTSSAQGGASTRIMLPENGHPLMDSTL
Chain of LPA1 receptor (native, systemic sclerosis dermal fibroblasts) (Q92633 whole entry): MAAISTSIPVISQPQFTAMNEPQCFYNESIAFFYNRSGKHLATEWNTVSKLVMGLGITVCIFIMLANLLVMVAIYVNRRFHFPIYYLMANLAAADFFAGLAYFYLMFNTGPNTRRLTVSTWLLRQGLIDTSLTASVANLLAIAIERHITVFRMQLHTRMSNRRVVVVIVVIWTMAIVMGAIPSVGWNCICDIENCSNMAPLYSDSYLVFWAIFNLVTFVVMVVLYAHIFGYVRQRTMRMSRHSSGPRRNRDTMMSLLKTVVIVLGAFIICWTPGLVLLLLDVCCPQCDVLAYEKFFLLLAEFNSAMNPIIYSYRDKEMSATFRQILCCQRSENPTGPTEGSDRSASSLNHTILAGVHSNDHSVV

Row | EC50 [1] [µM] | IC50 (LPA2 receptor) [µM] | IC50 (LPA5 receptor) [µM] | IC50 (LPA3 receptor) [µM] | SMILES
1 | 0.15 ± 0.05 | – | – | – | CCCCCCCC/C=C\CCCCCCCC(=O)OC[C@@H](O)COP(=O)(O)O [LPA 18:1]
2 | – | > 10 | > 10 | > 10 | COc1ccc(C(=O)NC2(C(=O)O)Cc3ccccc3C2)cc1OCCc1cccc(C)c1 [SAR100842, 2‐(4‐methoxy‐3‐(2‐m‐tolyl‐ethoxy)‐benzoylamino)‐indan‐2‐carboxylic acid]
